By IC50 is commonly meant the concentration at which inhibition is half-maximal. The term inhibition denotes the relative decrease from the control value, in per cent. A low value points to little suppression.

Here are results for seven compounds from patent publication US5741819A, “Arylsulfonylaminobenzene derivatives and the use thereof as factor Xa inhibitors” (3-Dimensional Pharmaceuticals, Inc., priority 1995, dated 1998).

Read-outs that look alike come from different tables or passages of the source.

Common to all, as to assay type: biochemical
The target in one test is T1, Factor Xa (Homo sapiens, UniProt P00742).
T1 construct: purchased Enzyme Research Laboratories, Inc
T1 sequence (P00742 235-488 limits assumed): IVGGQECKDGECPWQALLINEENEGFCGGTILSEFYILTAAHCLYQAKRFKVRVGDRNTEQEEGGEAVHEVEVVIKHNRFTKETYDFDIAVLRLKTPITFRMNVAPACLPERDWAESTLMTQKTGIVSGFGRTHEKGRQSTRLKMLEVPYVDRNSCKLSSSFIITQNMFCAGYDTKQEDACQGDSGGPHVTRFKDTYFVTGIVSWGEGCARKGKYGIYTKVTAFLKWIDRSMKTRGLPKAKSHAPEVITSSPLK
T1 sequence (P00742 41-179 partner limits assumed): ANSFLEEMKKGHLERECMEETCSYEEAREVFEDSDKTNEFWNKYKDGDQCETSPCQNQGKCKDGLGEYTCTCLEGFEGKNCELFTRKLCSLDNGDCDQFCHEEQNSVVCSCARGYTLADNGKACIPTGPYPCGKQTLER
The test can be described thus: In vitro inhibition of purified factor Xa (hydrolysis of Bz-Ile-Glu-Gly-Arg-pNa). The following applies: purified enzyme, 10 nM factor Xa, 26 μM substrate, pH 7.5, 37° C. As for the experimental part: (§1) The ability of the compounds of the present invention to act as inhibitors of thrombin, factor Xa and plasmin catalytic activity was assessed by determining the concentration that inhibited enzyme activity by 50% using purified human enzymes. The concentration of added inhibitor that caused a 50% decrease in the initial rate of hydrolysis was defined as the IC50 value.
(§2) All assays are based on the ability of the test compound to inhibit the hydrolysis of a peptide p-nitroanilide substrate. In a typical experiment, appropriate substrate is prepared in DMSO, and diluted into an assay buffer consisting of 50 mM HEPES and 130 mM NaCl at a pH of 7.5. The final concentration for each of the substrates is listed below. All substrate concentrations are at least 10 fold lower than Km to insure inhibition is competitive. Test compounds are prepared as 1 mg/mL solutions in DMSO, and three additional 10-fold dilutions in DMSO are prepared. Enzyme solutions are prepared at the concentrations listed below in assay buffer.
(§3) In a typical IC50 determination, into each well of a 96 well plate is pipetted 280 μL of substrate solution, 10 μL of inhibitor solution, and the plate is allowed to thermally equilibrate at 37° C. in a Molecular Devices Plate Reader for at least 10 minutes. Reactions are initiated by the addition of a 20 μL aliquot of enzyme, and the absorbance increase at 405 nm is recorded for 15 minutes. Data corresponding to less than 10% of the total substrate hydrolysis is used in the calculations. The ratio of the velocity (rate of the change in absorbance as a function of time) for a sample containing no inhibitor is divided by the velocity of a sample containing inhibitor, and is plotted as a function of inhibitor concentration. The inverse of the slope is the concentration of inhibitor which produces a 50% decrease in activity of the enzyme. This concentration is referred to as the IC50.
Factor Xa activity was assessed as the ability to hydrolyze the substrate Bz-Ile-Glu-Gly-Arg-pNa, and was obtained from Sigma. Substrate solutions were prepared at a concentration of 26 μM (26 μM<<Km =1.3 mM) in assay buffer. Final DMSO concentration was 0.3%. Activated factor Xa was obtained from Enzyme Research Laboratories, Inc., and was diluted into assay buffer to a concentration of 1.2 μM. Final reagent concentrations were: [Factor Xa]=10 nM, [Bz-Ile-Glu-Gly-Arg-pNa]=26 μM, [inhibitor]=60to 0.06 μM.

The target in the next test is human α-thrombin (Homo sapiens, UniProt P00734). As to the kind of experiment: In vitro inhibition of purified thrombin (hydrolysis of Bz-Phe-Val-Arg-pNa). As to conditions: for IC50: purified human α-thrombin 36 nM, pH 7.5, 37° C.; for inhibition at 60 µM: at 60 μM inhibitor. The protocol: as §1, §2, §3
Thrombin activity was assessed as the ability to hydrolyze the substrate N-benzoyl-Phe-Val-Arg-p-nitroanilide (Bz-Phe-Val-Arg-pNa), and was obtained from Sigma Chemical Company (St. Louis, Mo.). Substrate solutions were prepared at a concentration of 60 μM (60 μM<<Km =1.2 mM) in assay buffer. Final DMSO concentration was 0.3%. […] Final reagent concentrations were: [thrombin]=36 nM, [Bz-Phe-Val-Arg-pNa]=[…], [inhibitor]=60 to 0.06 μM.

The next test deals with human plasmin (Homo sapiens, UniProt P00747). The test can be described thus: In vitro inhibition of purified plasmin (hydrolysis of Tos-Gly-Pro-Lys-pNa). As to conditions: for inhibition at 60 µM: at 60 μM inhibitor. As for the experimental part: as §1, §2, §3
Chain of human plasmin (P00747 581-810 limits assumed): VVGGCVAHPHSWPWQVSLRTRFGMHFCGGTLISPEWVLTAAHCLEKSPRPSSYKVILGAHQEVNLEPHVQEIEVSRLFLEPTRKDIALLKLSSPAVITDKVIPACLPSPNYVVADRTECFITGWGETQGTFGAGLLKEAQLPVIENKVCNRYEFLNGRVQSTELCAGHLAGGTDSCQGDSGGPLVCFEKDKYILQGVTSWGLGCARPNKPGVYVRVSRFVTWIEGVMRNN
Chain of human plasmin (P00747 97-580 partner limits assumed): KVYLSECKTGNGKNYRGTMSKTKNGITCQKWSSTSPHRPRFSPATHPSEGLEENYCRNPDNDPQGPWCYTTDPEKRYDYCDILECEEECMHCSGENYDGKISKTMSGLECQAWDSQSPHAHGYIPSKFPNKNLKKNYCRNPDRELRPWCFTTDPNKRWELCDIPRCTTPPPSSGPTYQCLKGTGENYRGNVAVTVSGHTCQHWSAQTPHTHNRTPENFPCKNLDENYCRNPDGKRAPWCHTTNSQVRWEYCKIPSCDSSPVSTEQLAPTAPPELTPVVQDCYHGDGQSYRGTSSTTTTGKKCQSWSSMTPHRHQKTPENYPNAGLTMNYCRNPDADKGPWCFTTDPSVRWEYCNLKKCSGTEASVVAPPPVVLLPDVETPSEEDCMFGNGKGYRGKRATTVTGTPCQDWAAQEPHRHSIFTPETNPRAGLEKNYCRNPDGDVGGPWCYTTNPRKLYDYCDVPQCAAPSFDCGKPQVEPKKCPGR
Plasmin activity was assessed as the ability to hydrolyze the substrate Tos-Gly-Pro-Lys-pNa, and was obtained from Sigma. Substrate solutions were prepared at a concentration of 22 μM (22 μM<<Km =240 μM) in assay buffer. Final DMSO concentration was 0.3%. Purified human plasmin was obtained from Enzyme Research Laboratories Inc, and was diluted into assay buffer to a concentration of 1.2 μM. Final reagent concentrations were: [plasmin]=15 nM, […], [inhibitor]=60 to 0.06 μM.

The mark [1] stands for this setting: purified human plasmin 15 nM, pH 7.5, 37° C., read-out: Plasmin Inhibition (IC50).

Consider `O=C(NCC(O)c1cccc(O)c1)c1cccc(NS(=O)(=O)c2ccc3ccccc3c2)c1` (stereo not drawn) [Compound 14, 3-[(2-Naphthalenylsulfonyl)amino]-N-[2-hydroxy-2-(3'-hydroxyphenyl)ethyl]benzamide], for which the IC50 against Factor Xa was found to be 11.4 µM; on human α-thrombin, 87 µM; on human plasmin, 86.1 µM.
Take `CN(C)c1ccc(CNC(=O)c2cccc(NS(=O)(=O)c3ccc4ccccc4c3)c2)cc1` [Compound 16]: the results for the IC50 at Factor Xa and against human α-thrombin were 3.2 µM and 52.8 µM, respectively. At human plasmin, this compound returned an inhibition at 60 µM of 0%.
Consider `COc1cc(CNC(=O)c2cccc(NS(=O)(=O)c3ccccc3)c2)ccc1O` [Compound 20, 3-[(Phenylsulfonyl)amino]-N-[(4-hydroxy-3-methoxyphenyl)methyl]benzamide], for which the results for the IC50 against Factor Xa and on human plasmin (setting [1]) were 19.2 µM and 5.8 µM, respectively. Besides, at 60 µM the inhibition against human α-thrombin was 0%.
`COc1cc(C(O)CNC(=O)c2cccc(NS(=O)(=O)c3ccccc3)c2)ccc1O` (stereo not drawn) [Compound 22, 3-[(Phenylsulfonyl)amino]-N-[2-hydroxy-2-(4'-hydroxy-3'-methoxyphenyl)ethyl]benzamide]: the IC50 stood at 20.8 µM against Factor Xa and 38.3 µM on human α-thrombin. The same compound had an inhibition at 60 µM against human plasmin of 0%.
The like results for `O=C(NCCc1ccccn1)c1cccc(NS(=O)(=O)c2ccc3ccccc3c2)c1` [Compound 27] were, in that order, 2 µM, 294 µM and 0%.
For the compound `CN(C)c1ccc(CNC(=O)c2cccc(NS(=O)(=O)c3cccc(N)c3)c2)cc1` [Compound 31, 3-[(3'-Aminophenylsulfonyl)amino]-N-[4'-[(N', N'-dimethylamino)phenyl]methyl]benzamide], the IC50 against Factor Xa was found to be 16.5 µM; on human plasmin (setting [1]), 15.2 µM. Also, the inhibition at 60 µM at human α-thrombin came out at 0%.
`NCCCCCNC(=O)c1cccc(NS(=O)(=O)c2ccc3ccccc3c2)c1` [Compound 32, 3-[(2-Naphthalenylsulfonyl)amino]-N-(5-aminopentyl)benzamide] yielded an IC50 on Factor Xa of 7.6 µM. Moreover, the inhibition at 60 µM against human α-thrombin and against human plasmin was 0% in each case.
